According to US7119075B2, “Use of herbal agents for potentiation of bioefficacy of anti infectives” (priority 2003, dated 2006):

Tests used:
Test in all cases: Inhibitory effect of bioenhancers alone
Assay type in all cases: cell-based
[1] = tested on: Escherichia coli ATCC 25922; conditions: Escherichia coli, ATCC25922
[2] = tested on: Bacillus cereus RRL 02; conditions: Bacillus cereus, RRL02
[3] = tested on: Candida tropicalis ATCC 750; conditions: Candida tropicalis, ATCC750
[4] = tested on: Staphylococcus aureus ATCC 29313; conditions: Staphylococcus aureus, ATCC29313
[5] = tested on: Mycobacterium intracelluare ATCC 13950; conditions: Mycobacterium, ATCC13950
[6] = tested on: Staphylococcus hemolyticus ATCC 29978; conditions: Staphylococcus, ATCC29978
[7] = tested on: Methicillin Resistant Staphylococcus aureus (MRSA); conditions: Staphylococcus aureus, MRSA
[8] = tested on: Salmonella typhi AIIMS 2; conditions: Salmonella enterica, TYPHI, read-out: inhibitory effect
[9] = tested on: Mycobacterium avium ATCC 49601; conditions: Mycobacterium avium, ATCC49601
[10] = tested on: Candida krusei ATCC 6258; conditions: Pichia kudriavzevii, ATCC6258
[11] = tested on: Mycobacterium tuberculosis 615; conditions: Mycobacterium tuberculosis, 615
[12] = tested on: Klebsiella pneumoniae ATCC 75388; conditions: Klebsiella pneumoniae, ATCC75388
[13] = tested on: Staphylococcus epidermidis ATCC 12228; conditions: Staphylococcus epidermidis, ATCC12228
[14] = tested on: Aspergillus fumigatus SI-1; conditions: Aspergillus fumigatus, SI1
[15] = tested on: Mycobacterium tuberculosis H37Rv; conditions: Mycobacterium tuberculosis, H37RV, read-out: inhibitory effect
[16] = tested on: Aspergillus flavus MTCC 1973; conditions: Aspergillus flavus, MTCC1973
[17] = tested on: Pseudomonas aeruginosa ATCC 27583; conditions: Pseudomonas aeruginosa, ATCC27583

O=C(/C=C/C=C/c1ccc2c(c1)OCO2)N1CCCCC1 [piperine] showed an inhibition at 0.2 µg/mL ([1]; conc. 0.2 μg/ml) of 0%, an inhibition at 0.8 µg/mL ([1]; conc. 0.8 μg/ml) of 0% and an inhibition at 3.12 µg/mL ([1]; conc. 3.12 μg/ml) of 0%. For the same molecule, the inhibition at 12.5 µg/mL ([1]; conc. 12.5 μg/ml) was 0%, the inhibition at 50 µg/mL ([1]; conc. 50 μg/ml) was 0% and the inhibition at 100 µg/mL ([1]; conc. 100 μg/ml) was 0%. For the same molecule, the inhibition at 0.2 µg/mL ([2]; conc. 0.2 μg/ml) was 0%, the inhibition at 0.8 µg/mL ([2]; conc. 0.8 μg/ml) was 0% and the inhibition at 3.12 µg/mL ([2]; conc. 3.12 μg/ml) was 0%. It also gave an inhibition at 12.5 µg/mL ([2]; conc. 12.5 μg/ml) of 0%, an inhibition at 50 µg/mL ([2]; conc. 50 μg/ml) of 0% and an inhibition at 100 µg/mL ([2]; conc. 100 μg/ml) of 0%. For the same molecule, the inhibition at 0.2 µg/mL ([3]; conc. 0.2 μg/ml) was 0%, the inhibition at 0.8 µg/mL ([3]; conc. 0.8 μg/ml) was 0% and the inhibition at 3.12 µg/mL ([3]; conc. 3.12 μg/ml) was 0%. For the same molecule, the inhibition at 12.5 µg/mL ([3]; conc. 12.5 μg/ml) was 0%, the inhibition at 50 µg/mL ([3]; conc. 50 μg/ml) was 0% and the inhibition at 100 µg/mL ([3]; conc. 100 μg/ml) was 20%. For the same molecule, the inhibition at 0.2 µg/mL ([4]; conc. 0.2 μg/ml) was 0%, the inhibition at 0.8 µg/mL ([4]; conc. 0.8 μg/ml) was 0% and the inhibition at 3.12 µg/mL ([4]; conc. 3.12 μg/ml) was 0%. The inhibition at 12.5 µg/mL ([4]; conc. 12.5 μg/ml) was 0%, the inhibition at 50 µg/mL ([4]; conc. 50 μg/ml) was 0% and the inhibition at 100 µg/mL ([4]; conc. 100 μg/ml) was 20%. For the same molecule, the inhibition at 0.2 µg/mL ([5]; conc. 0.2 μg/ml) was 0%, the inhibition at 0.8 µg/mL ([5]; conc. 0.8 μg/ml) was 0% and the inhibition at 3.12 µg/mL ([5]; conc. 3.12 μg/ml) was 0%. The inhibition at 12.5 µg/mL ([5]; conc. 12.5 μg/ml) was 0%, the inhibition at 50 µg/mL ([5]; conc. 50 μg/ml) was 0% and the inhibition at 100 µg/mL ([5]; conc. 100 μg/ml) was 0%. The inhibition at 0.2 µg/mL ([6]; conc. 0.2 μg/ml) was 0%, the inhibition at 0.8 µg/mL ([6]; conc. 0.8 μg/ml) was 0% and the inhibition at 3.12 µg/mL ([6]; conc. 3.12 μg/ml) was 0%. It also gave an inhibition at 12.5 µg/mL ([6]; conc. 12.5 μg/ml) of 0%, an inhibition at 50 µg/mL ([6]; conc. 50 μg/ml) of 20% and an inhibition at 100 µg/mL ([6]; conc. 100 μg/ml) of 50%. The inhibition at 0.2 µg/mL ([7]; conc. 0.2 μg/ml) was 0%, the inhibition at 0.8 µg/mL ([7]; conc. 0.8 μg/ml) was 0% and the inhibition at 3.12 µg/mL ([7]; conc. 3.12 μg/ml) was 0%. For the same molecule, the inhibition at 12.5 µg/mL ([7]; conc. 12.5 μg/ml) was 0%, the inhibition at 50 µg/mL ([7]; conc. 50 μg/ml) was 0% and the inhibition at 100 µg/mL ([7]; conc. 100 μg/ml) was 20%. For the same molecule, the inhibition at 0.2 µg/mL [8] was 0%, the inhibition at 0.8 µg/mL [8] was 0% and the inhibition at 3.12 µg/mL [8] was 0%. It also gave an inhibition at 12.5 µg/mL [8] of 0%, an inhibition at 50 µg/mL [8] of 0% and an inhibition at 100 µg/mL [8] of 0%. It also gave an inhibition at 0.2 µg/mL ([9]; conc. 0.2 μg/ml) of 0%, an inhibition at 0.8 µg/mL ([9]; conc. 0.8 μg/ml) of 0% and an inhibition at 3.12 µg/mL ([9]; conc. 3.12 μg/ml) of 0%. For the same molecule, the inhibition at 12.5 µg/mL ([9]; conc. 12.5 μg/ml) was 0%, the inhibition at 50 µg/mL ([9]; conc. 50 μg/ml) was 0% and the inhibition at 100 µg/mL ([9]; conc. 100 μg/ml) was 0%. It also gave an inhibition at 0.2 µg/mL ([10]; conc. 0.2 μg/ml) of 0%, an inhibition at 0.8 µg/mL ([10]; conc. 0.8 μg/ml) of 0% and an inhibition at 3.12 µg/mL ([10]; conc. 3.12 μg/ml) of 0%. It also gave an inhibition at 12.5 µg/mL ([10]; conc. 12.5 μg/ml) of 0%, an inhibition at 50 µg/mL ([10]; conc. 50 μg/ml) of 0% and an inhibition at 100 µg/mL ([10]; conc. 100 μg/ml) of 20%. It also gave an inhibition at 0.2 µg/mL ([11]; conc. 0.2 μg/ml) of 0%, an inhibition at 0.8 µg/mL ([11]; conc. 0.8 μg/ml) of 0% and an inhibition at 3.12 µg/mL ([11]; conc. 3.12 μg/ml) of 0%. For the same molecule, the inhibition at 12.5 µg/mL ([11]; conc. 12.5 μg/ml) was 0%, the inhibition at 50 µg/mL ([11]; conc. 50 μg/ml) was 0% and the inhibition at 100 µg/mL ([11]; conc. 100 μg/ml) was 0%. The inhibition at 0.2 µg/mL ([12]; conc. 0.2 μg/ml) was 0%, the inhibition at 0.8 µg/mL ([12]; conc. 0.8 μg/ml) was 0% and the inhibition at 3.12 µg/mL ([12]; conc. 3.12 μg/ml) was 0%. It also gave an inhibition at 12.5 µg/mL ([12]; conc. 12.5 μg/ml) of 0%, an inhibition at 50 µg/mL ([12]; conc. 50 μg/ml) of 0% and an inhibition at 100 µg/mL ([12]; conc. 100 μg/ml) of 0%. For the same molecule, the inhibition at 0.2 µg/mL ([13]; conc. 0.2 μg/ml) was 0%, the inhibition at 0.8 µg/mL ([13]; conc. 0.8 μg/ml) was 0% and the inhibition at 3.12 µg/mL ([13]; conc. 3.12 μg/ml) was 0%. For the same molecule, the inhibition at 12.5 µg/mL ([13]; conc. 12.5 μg/ml) was 0%, the inhibition at 50 µg/mL ([13]; conc. 50 μg/ml) was 20% and the inhibition at 100 µg/mL ([13]; conc. 100 μg/ml) was 50%. The inhibition at 0.2 µg/mL ([14]; conc. 0.2 μg/ml) was 0%, the inhibition at 0.8 µg/mL ([14]; conc. 0.8 μg/ml) was 0% and the inhibition at 3.12 µg/mL ([14]; conc. 3.12 μg/ml) was 0%. The inhibition at 12.5 µg/mL ([14]; conc. 12.5 μg/ml) was 0%, the inhibition at 50 µg/mL ([14]; conc. 50 μg/ml) was 20% and the inhibition at 100 µg/mL ([14]; conc. 100 μg/ml) was 50%. It also gave an inhibition at 0.2 µg/mL [15] of 0%, an inhibition at 0.8 µg/mL [15] of 0% and an inhibition at 3.12 µg/mL [15] of 0%. The inhibition at 12.5 µg/mL [15] was 0%, the inhibition at 50 µg/mL [15] was 0% and the inhibition at 100 µg/mL [15] was 0%. It also gave an inhibition at 0.2 µg/mL ([16]; conc. 0.2 μg/ml) of 0%, an inhibition at 0.8 µg/mL ([16]; conc. 0.8 μg/ml) of 0% and an inhibition at 3.12 µg/mL ([16]; conc. 3.12 μg/ml) of 0%. For the same molecule, the inhibition at 12.5 µg/mL ([16]; conc. 12.5 μg/ml) was 0%, the inhibition at 50 µg/mL ([16]; conc. 50 μg/ml) was 20% and the inhibition at 100 µg/mL ([16]; conc. 100 μg/ml) was 50%. For the same molecule, the inhibition at 0.2 µg/mL ([17]; conc. 0.2 μg/ml) was 0%, the inhibition at 0.8 µg/mL ([17]; conc. 0.8 μg/ml) was 0% and the inhibition at 3.12 µg/mL ([17]; conc. 3.12 μg/ml) was 0%. It also gave an inhibition at 12.5 µg/mL ([17]; conc. 12.5 μg/ml) of 0%, an inhibition at 50 µg/mL ([17]; conc. 50 μg/ml) of 0% and an inhibition at 100 µg/mL ([17]; conc. 100 μg/ml) of 0%.
